{"source": "paper PMC6691788", "about": "“Design and synthesis of phthalazine-based compounds as potent anticancer agents with potential antiangiogenic activity via VEGFR-2 inhibition” (Journal of Enzyme Inhibition and Medicinal Chemistry, 2019)", "key": {"SW-620": {"tested_on": "SW-620", "test": "NCI 60 cell panel SRB screen", "format": "cell-based", "conditions": "Homo sapiens"}, "HCT-116 cells [1]": {"tested_on": "HCT-116 cells", "test": "Cell-cycle analysis by flow cytometry", "format": "cell-based", "conditions": "HCT-116, at GI50 concentration (1.20 µM), 24 h and 48 h", "experimental": "The cells then were collected by trypsinization, washed with phosphate buffered saline (PBS), and fixed in ice-cold absolute alcohol. Thereafter, cells were stained, using Cycletest^TM Plus DNA Reagent Kit (BD Biosciences, San Jose, CA), according to the manufacturer’s instructions. Cell cycle distribution was determined using a FACS Calibur flow cytometer (BD Biosciences, San Jose, CA)."}, "SF-539": {"tested_on": "SF-539", "test": "NCI 60 cell panel SRB screen", "format": "cell-based, human"}, "NCI-H460": {"tested_on": "NCI-H460", "test": "NCI 60 cell panel SRB screen", "format": "cell-based", "conditions": "Homo sapiens"}, "HCT-116 cells [2]": {"tested_on": "HCT-116 cells", "test": "Annexin V-FITC/PI apoptosis detection", "format": "cell-based", "conditions": "HCT-116, at GI50, 24 h and 48 h", "from_the_text": "To further investigate the ability of compounds (7b, 13c and 16a) to induce apoptosis, an Annexin V (conjugated to FITC) apoptosis detection kit was employed. This assay detects phosphatidylserine (PS) expressed on the surface of apoptotic cells and fluoresces green after interacting with the labelled Annexin V. During early apoptosis, membrane asymmetry is lost, and PS translocates from the cytoplasmic side of the membrane to the external leaflet. Propidium iodide (PI), the counter stain used in this assay, has the ability to cross only compromised membranes to intercalate into the DNA. Therefore, PI is used to detect the late stages of apoptosis by the presence of red fluorescence.\nApoptosis was determined by staining cells with Annexin V–fluorescein isothiocyanate (FITC) and counterstaining with propidium iodide (PI) using the Annexin V–FITC/PI apoptosis detection kit (BD PharMingen, San Diego, CA, USA) according to the manufacturer's instructions. […] The cells then were collected by trypsinization and 0.5 × 10^6 cells were washed twice with phosphate-buffered saline (PBS) and stained with 5 μl Annexin V–FITC and 5 μl PI in 1× binding buffer (BD PharMingen) for 15 minutes at room temperature in the dark. Analyses were performed using FACS Calibur flow cytometer (BD Biosciences, San Jose, CA)."}, "COLO 205": {"tested_on": "COLO 205", "test": "NCI 60 cell panel SRB screen", "format": "cell-based", "conditions": "Homo sapiens"}, "OVCAR-4": {"tested_on": "OVCAR-4", "test": "NCI 60 cell panel SRB screen", "format": "cell-based", "conditions": "Homo sapiens"}, "SK-MEL-28": {"tested_on": "SK-MEL-28", "test": "NCI 60 cell panel SRB screen", "format": "cell-based", "conditions": "Homo sapiens"}, "OVCAR-8": {"tested_on": "OVCAR-8", "test": "NCI 60 cell panel SRB screen", "format": "cell-based", "conditions": "Homo sapiens"}, "A498": {"tested_on": "A498", "test": "NCI 60 cell panel SRB screen", "format": "cell-based", "conditions": "Homo sapiens"}, "786-0": {"tested_on": "786-0", "test": "NCI 60 cell panel SRB screen", "format": "cell-based", "conditions": "Homo sapiens"}, "NCI-H23": {"tested_on": "NCI-H23", "test": "NCI 60 cell panel SRB screen", "format": "cell-based", "conditions": "Homo sapiens"}, "[3]": {"conditions": "Homo sapiens, SF-539, 5 log dose"}}, "note": "Entries after “also recorded” stand apart in the source; their conditions may differ."}
{"compound": "Clc1ccc(Nc2nnc(CNc3ccccc3)c3ccccc23)cc1", "note": "[Compound 16a, N-(4-Chlorophenyl)-4-((phenylamino)methyl)phthalazin-1-amine]", "values": [{"measurement": "CC50", "setting": "SW-620; SW-620, 5 log dose, 48 h, read-out: LC50 (the source's name)", "value": "> 25", "unit": "µM"}, {"measurement": "activity at 10 µM", "setting": "SW-620; SW-620, single dose 10 μM, read-out: percent cell growth promotion", "value": 30.8, "unit": "%"}, {"measurement": "effect on cell-cycle progression", "setting": "HCT-116 cells [1]", "value": "induce cell cycle arrest at S phase boundary; also recorded: significant action at both S phase and sub-G1 cell population"}, {"measurement": "GI50", "setting": "SF-539; [3]", "value": 3.67, "unit": "µM"}, {"measurement": "IC (TGI)", "setting": "SF-539; [3]", "value": 8.1, "unit": "µM"}, {"measurement": "CC50", "setting": "SF-539; Homo sapiens, SF-539, 5 log dose, 48 h, read-out: LC50 (the source's name)", "value": 17.8, "unit": "µM"}, {"measurement": "percent cell growth promotion", "setting": "SF-539; SF-539, single dose 10 μM", "value": 33.99, "unit": "%"}, {"measurement": "GI50", "setting": "NCI-H460; NCI-H460, 5 log dose", "value": 3.21, "unit": "µM"}, {"measurement": "IC (TGI)", "setting": "NCI-H460; NCI-H460, 5 log dose", "value": 9.98, "unit": "µM"}, {"measurement": "LC50 (concentration causing 50% cell kill)", "setting": "NCI-H460; NCI-H460, 5 log dose, 48 h", "value": "> 25", "unit": "µM"}, {"measurement": "activity at 10 µM", "setting": "NCI-H460; NCI-H460, single dose 10 μM, read-out: percent cell growth promotion", "value": 17.6, "unit": "%"}, {"measurement": "induction of apoptosis (Annexin-V positive cells), in words", "setting": "HCT-116 cells [2]", "value": "increased the percentage of Annexin-V positive cells in lower right quadrant indicating early apoptosis"}, {"measurement": "GI50", "setting": "COLO 205; COLO 205, 5 log dose", "value": 0.91, "unit": "µM"}, {"measurement": "IC (TGI)", "setting": "COLO 205; COLO 205, 5 log dose", "value": 5.39, "unit": "µM"}, {"measurement": "CC50", "setting": "COLO 205; COLO 205, 5 log dose, 48 h, read-out: LC50 (the source's name)", "value": 20.5, "unit": "µM"}, {"measurement": "activity at 10 µM", "setting": "COLO 205; COLO 205, single dose 10 μM, read-out: percent cell growth promotion", "value": 11.9, "unit": "%"}, {"measurement": "GI50", "setting": "OVCAR-4; OVCAR-4, 5 log dose", "value": 3, "unit": "µM"}, {"measurement": "IC (TGI)", "setting": "OVCAR-4; OVCAR-4, 5 log dose", "value": "> 25", "unit": "µM"}, {"measurement": "CC50", "setting": "OVCAR-4; OVCAR-4, 5 log dose, 48 h, read-out: LC50 (the source's name)", "value": "> 25", "unit": "µM"}, {"measurement": "activity at 10 µM", "setting": "OVCAR-4; OVCAR-4, single dose 10 μM, read-out: percent cell growth promotion", "value": 19.3, "unit": "%"}, {"measurement": "GI50", "setting": "SK-MEL-28; SK-MEL-28", "value": 3.67, "unit": "µM"}, {"measurement": "IC (TGI)", "setting": "SK-MEL-28; SK-MEL-28, read-out: TGI", "value": 10.5, "unit": "µM"}, {"measurement": "activity at 10 µM", "setting": "SK-MEL-28; SK-MEL-28, read-out: percent cell growth promotion", "value": 14.9, "unit": "%"}, {"measurement": "CC50", "setting": "SK-MEL-28; SK-MEL-28, 5 log dose, 48 h, read-out: LC50 (the source's name)", "value": "> 25", "unit": "µM"}, {"measurement": "GI50", "setting": "OVCAR-8; OVCAR-8, 5 log dose", "value": 4.63, "unit": "µM"}, {"measurement": "IC (TGI)", "setting": "OVCAR-8; OVCAR-8, 5 log dose", "value": 16.8, "unit": "µM"}, {"measurement": "CC50", "setting": "OVCAR-8; OVCAR-8, 5 log dose, 48 h, read-out: LC50 (the source's name)", "value": "> 25", "unit": "µM"}, {"measurement": "activity at 10 µM", "setting": "OVCAR-8; OVCAR-8, single dose 10 μM, read-out: percent cell growth promotion", "value": 18.2, "unit": "%"}, {"measurement": "GI50", "setting": "A498; A498, 5 log dose", "value": 1.45, "unit": "µM"}, {"measurement": "IC (TGI)", "setting": "A498; A498, 5 log dose", "value": 6.6, "unit": "µM"}, {"measurement": "CC50", "setting": "A498; A498, 5 log dose, 48 h, read-out: LC50 (the source's name)", "value": 17.6, "unit": "µM"}, {"measurement": "activity at 10 µM", "setting": "A498; A498, single dose 10 μM, read-out: percent cell growth promotion", "value": 24.7, "unit": "%"}, {"measurement": "GI50", "setting": "786-0; 786-0, 5 log dose", "value": 4.01, "unit": "µM"}, {"measurement": "IC (TGI)", "setting": "786-0; 786-0, 5 log dose", "value": 12.5, "unit": "µM"}, {"measurement": "CC50", "setting": "786-0; 786-0, 5 log dose, 48 h, read-out: LC50 (the source's name)", "value": "> 25", "unit": "µM"}, {"measurement": "activity at 10 µM", "setting": "786-0; 786-0, single dose 10 μM, read-out: percent cell growth promotion", "value": 21.4, "unit": "%"}, {"measurement": "GI50", "setting": "NCI-H23; NCI-H23, 5 log dose", "value": 2.5, "unit": "µM"}, {"measurement": "IC (TGI)", "setting": "NCI-H23; NCI-H23, 5 log dose", "value": 16.4, "unit": "µM"}, {"measurement": "CC50", "setting": "NCI-H23; NCI-H23, 5 log dose, 48 h, read-out: LC50 (the source's name)", "value": "> 25", "unit": "µM"}, {"measurement": "activity at 10 µM", "setting": "NCI-H23; NCI-H23, single dose 10 μM, read-out: percent cell growth promotion", "value": 9.95, "unit": "%"}]}
